Columns and labels:
[1] = biological target: Serine/threonine-protein kinase pim-1 (Homo sapiens, UniProt P11309); assay: Selectivity interaction (KinomeScan (DiscoverX)) EUB0001049a PIM1; conditions: at 1 µM
[2] = biological target: Phosphatidylinositol 4,5-bisphosphate 3-kinase catalytic subunit gamma isoform (Homo sapiens) (UniProt P48736); assay: Selectivity interaction (KinomeScan (DiscoverX)) EUB0001049a PIK3CG; conditions: at 1 µM
[3] = biological target: T1, Tyrosine-protein kinase Mer (Homo sapiens) (UniProt Q12866); assay: Selectivity interaction (Ambit KINOMEscan and KiNATiv profiling in Jurkat cells) EUB0000090b MERTK; type: cell-based; conditions: at 1 µM
T1 sequence (whole entry): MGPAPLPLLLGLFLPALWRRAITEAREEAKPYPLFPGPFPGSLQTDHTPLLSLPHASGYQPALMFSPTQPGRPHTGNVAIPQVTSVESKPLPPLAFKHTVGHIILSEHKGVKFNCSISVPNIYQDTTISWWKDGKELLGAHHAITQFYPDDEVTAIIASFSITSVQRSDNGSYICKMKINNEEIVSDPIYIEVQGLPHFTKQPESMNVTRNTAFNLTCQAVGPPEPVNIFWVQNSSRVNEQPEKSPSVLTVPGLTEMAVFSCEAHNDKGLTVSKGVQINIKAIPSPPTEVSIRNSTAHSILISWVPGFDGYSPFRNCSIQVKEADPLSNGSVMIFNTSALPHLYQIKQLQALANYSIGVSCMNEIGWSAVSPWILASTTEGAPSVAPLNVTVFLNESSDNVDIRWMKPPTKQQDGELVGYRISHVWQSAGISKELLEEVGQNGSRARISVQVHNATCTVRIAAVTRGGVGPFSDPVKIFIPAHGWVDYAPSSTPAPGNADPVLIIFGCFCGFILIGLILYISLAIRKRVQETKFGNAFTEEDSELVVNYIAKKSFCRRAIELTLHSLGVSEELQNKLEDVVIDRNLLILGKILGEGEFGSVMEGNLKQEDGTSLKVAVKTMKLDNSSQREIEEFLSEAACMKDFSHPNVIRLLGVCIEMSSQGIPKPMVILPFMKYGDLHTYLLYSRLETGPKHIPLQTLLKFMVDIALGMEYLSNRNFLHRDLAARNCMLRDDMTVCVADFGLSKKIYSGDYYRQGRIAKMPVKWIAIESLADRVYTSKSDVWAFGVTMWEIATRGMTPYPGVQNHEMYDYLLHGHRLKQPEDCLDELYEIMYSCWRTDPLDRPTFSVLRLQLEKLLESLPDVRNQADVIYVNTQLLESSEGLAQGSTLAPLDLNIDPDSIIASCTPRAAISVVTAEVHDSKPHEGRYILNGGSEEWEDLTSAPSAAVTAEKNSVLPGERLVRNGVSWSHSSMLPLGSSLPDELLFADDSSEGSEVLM

[4] = biological target: Phosphatidylinositol 4-kinase beta (Homo sapiens, UniProt Q9UBF8); assay: Selectivity interaction (Kinase panel (literature)) EUB0001199aCl PI4KB; conditions: at 1 µM
Sequence of Phosphatidylinositol 4-kinase beta (Q9UBF8 2-816 limits assumed): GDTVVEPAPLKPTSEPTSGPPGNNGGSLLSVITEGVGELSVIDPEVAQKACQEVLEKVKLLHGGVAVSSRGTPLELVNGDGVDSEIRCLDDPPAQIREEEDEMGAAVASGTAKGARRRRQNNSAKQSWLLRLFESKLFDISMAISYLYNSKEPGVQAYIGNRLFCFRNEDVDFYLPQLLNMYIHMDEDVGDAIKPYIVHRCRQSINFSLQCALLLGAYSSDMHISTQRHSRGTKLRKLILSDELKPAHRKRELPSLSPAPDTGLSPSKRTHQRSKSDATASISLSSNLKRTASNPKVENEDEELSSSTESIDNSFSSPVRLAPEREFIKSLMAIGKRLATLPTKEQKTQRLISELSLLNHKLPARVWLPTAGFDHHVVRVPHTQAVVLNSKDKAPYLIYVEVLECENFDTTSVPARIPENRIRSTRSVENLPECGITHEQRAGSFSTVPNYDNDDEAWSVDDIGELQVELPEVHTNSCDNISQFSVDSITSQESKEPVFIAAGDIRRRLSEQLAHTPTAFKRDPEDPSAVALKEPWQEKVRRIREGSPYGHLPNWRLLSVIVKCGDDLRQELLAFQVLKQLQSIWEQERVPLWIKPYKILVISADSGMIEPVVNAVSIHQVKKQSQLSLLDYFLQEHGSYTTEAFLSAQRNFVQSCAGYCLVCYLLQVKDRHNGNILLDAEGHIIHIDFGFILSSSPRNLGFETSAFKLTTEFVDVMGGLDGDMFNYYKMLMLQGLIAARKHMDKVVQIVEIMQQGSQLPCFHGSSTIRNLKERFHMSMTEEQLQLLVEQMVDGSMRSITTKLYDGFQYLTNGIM

[5] = tested on: Tyrosine-protein kinase ABL1 (Homo sapiens), P00519 [Q252H]; assay: Selectivity interaction (KinomeScan (DiscoverX)) EUB0001079a ABL1; conditions: at 1 µM
[6] = biological target: Non-receptor tyrosine-protein kinase TYK2 (Homo sapiens, UniProt P29597); assay: Selectivity interaction (KinomeScan (DiscoverX)) EUB0000655a TYK2; conditions: at 10 µM
Sequence of Non-receptor tyrosine-protein kinase TYK2 (P29597 whole entry): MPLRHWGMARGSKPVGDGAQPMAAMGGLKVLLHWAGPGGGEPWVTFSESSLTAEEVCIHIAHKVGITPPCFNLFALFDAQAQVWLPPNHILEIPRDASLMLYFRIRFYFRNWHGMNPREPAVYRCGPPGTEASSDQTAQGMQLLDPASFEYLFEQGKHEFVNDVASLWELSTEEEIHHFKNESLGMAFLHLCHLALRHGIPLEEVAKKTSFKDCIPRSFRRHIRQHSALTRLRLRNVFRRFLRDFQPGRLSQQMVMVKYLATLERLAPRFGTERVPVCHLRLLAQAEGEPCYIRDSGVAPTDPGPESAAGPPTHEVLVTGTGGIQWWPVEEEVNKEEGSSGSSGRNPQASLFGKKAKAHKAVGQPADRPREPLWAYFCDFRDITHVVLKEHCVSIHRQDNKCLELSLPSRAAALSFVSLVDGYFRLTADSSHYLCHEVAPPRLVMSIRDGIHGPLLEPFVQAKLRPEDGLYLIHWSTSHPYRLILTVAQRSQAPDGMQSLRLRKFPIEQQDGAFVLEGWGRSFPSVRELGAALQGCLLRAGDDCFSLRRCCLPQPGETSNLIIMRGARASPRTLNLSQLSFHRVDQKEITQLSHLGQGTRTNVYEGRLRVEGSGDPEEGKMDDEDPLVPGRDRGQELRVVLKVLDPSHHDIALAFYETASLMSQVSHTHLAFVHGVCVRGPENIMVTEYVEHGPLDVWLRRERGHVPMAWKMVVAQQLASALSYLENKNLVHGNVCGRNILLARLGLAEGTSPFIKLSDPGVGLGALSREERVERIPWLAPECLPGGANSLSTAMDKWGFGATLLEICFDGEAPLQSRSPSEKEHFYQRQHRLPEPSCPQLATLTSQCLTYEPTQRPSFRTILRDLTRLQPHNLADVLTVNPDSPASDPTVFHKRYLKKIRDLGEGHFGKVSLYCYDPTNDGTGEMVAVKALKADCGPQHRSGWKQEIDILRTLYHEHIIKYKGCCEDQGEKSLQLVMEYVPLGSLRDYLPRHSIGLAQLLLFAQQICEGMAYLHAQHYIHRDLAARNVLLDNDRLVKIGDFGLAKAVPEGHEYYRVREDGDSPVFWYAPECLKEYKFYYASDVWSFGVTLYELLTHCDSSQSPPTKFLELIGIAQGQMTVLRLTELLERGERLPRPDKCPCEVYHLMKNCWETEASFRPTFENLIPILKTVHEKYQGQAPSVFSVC

[7] = biological target: Serine/threonine-protein kinase 38 (Homo sapiens) (UniProt Q15208); assay: Selectivity interaction (KinomeScan (DiscoverX)) EUB0001619a STK38; conditions: at 1 µM
Sequence of Serine/threonine-protein kinase 38 (Homo sapiens) (Q15208 2-465 limits assumed): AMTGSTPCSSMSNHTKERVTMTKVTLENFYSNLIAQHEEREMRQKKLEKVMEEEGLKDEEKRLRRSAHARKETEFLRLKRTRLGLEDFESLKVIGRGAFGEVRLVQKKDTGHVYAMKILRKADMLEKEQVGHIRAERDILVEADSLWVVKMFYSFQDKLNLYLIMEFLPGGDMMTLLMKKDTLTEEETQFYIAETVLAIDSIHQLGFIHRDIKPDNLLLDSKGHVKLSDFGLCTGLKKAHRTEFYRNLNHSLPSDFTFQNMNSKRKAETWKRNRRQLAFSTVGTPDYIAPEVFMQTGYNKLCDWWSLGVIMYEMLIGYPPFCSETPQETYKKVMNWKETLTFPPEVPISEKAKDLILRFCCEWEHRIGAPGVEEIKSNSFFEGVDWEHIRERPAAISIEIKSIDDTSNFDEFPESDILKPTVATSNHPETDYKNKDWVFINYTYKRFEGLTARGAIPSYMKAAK

[8] = biological target: T2, Serine/threonine-protein kinase Nek1 (Homo sapiens) (UniProt Q96PY6); assay: Selectivity interaction (ActivX KiNativ screen (ex vivo kinase selectivity in human PBMCs)) EUB0001619a NEK1; type: cell-based; conditions: PBMC, at 1 µM
T2 sequence (whole entry): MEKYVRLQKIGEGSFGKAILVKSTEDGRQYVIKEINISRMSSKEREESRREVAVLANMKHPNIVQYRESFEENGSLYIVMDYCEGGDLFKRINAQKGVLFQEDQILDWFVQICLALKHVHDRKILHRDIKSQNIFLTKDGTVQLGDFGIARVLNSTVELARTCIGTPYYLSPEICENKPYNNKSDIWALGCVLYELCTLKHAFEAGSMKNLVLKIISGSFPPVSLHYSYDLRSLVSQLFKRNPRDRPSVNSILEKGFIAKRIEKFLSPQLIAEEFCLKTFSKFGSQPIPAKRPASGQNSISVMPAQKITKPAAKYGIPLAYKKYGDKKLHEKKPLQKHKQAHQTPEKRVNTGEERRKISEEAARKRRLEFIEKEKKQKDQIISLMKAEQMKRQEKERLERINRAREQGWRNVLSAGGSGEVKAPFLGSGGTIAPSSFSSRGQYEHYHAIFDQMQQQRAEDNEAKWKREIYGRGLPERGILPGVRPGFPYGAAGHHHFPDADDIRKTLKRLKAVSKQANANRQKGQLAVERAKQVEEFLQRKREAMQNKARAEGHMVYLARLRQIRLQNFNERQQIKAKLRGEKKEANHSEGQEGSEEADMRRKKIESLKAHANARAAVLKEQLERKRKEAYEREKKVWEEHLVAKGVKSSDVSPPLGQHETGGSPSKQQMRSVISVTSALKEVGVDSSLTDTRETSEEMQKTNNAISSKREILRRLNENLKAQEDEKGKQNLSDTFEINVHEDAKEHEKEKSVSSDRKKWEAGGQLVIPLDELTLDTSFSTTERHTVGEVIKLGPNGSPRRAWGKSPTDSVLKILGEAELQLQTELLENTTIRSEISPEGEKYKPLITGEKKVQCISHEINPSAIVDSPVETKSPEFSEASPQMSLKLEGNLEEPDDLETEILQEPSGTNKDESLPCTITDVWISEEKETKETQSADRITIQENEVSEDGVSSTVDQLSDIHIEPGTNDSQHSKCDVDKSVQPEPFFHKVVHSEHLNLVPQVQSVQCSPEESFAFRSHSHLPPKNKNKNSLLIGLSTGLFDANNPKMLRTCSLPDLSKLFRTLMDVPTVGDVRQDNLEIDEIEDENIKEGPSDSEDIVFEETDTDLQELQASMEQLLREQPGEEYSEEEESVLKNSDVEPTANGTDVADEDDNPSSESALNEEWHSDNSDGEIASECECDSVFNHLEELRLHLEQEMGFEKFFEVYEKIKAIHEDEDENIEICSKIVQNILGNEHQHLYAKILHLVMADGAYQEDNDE

Sequence of Serine/threonine-protein kinase pim-1 (P11309 whole entry, looked up, canonical isoform): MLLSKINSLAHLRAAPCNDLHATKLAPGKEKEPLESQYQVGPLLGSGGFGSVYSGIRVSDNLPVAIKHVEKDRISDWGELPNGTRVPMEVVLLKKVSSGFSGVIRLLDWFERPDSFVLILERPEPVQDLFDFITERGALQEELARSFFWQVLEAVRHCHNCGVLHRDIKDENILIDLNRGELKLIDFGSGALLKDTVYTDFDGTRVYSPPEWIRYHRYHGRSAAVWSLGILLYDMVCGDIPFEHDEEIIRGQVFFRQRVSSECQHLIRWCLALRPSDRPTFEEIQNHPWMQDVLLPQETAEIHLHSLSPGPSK
Sequence of Phosphatidylinositol 4,5-bisphosphate 3-kinase catalytic subunit gamma isoform (Homo sapiens) (P48736 whole entry, looked up, canonical isoform): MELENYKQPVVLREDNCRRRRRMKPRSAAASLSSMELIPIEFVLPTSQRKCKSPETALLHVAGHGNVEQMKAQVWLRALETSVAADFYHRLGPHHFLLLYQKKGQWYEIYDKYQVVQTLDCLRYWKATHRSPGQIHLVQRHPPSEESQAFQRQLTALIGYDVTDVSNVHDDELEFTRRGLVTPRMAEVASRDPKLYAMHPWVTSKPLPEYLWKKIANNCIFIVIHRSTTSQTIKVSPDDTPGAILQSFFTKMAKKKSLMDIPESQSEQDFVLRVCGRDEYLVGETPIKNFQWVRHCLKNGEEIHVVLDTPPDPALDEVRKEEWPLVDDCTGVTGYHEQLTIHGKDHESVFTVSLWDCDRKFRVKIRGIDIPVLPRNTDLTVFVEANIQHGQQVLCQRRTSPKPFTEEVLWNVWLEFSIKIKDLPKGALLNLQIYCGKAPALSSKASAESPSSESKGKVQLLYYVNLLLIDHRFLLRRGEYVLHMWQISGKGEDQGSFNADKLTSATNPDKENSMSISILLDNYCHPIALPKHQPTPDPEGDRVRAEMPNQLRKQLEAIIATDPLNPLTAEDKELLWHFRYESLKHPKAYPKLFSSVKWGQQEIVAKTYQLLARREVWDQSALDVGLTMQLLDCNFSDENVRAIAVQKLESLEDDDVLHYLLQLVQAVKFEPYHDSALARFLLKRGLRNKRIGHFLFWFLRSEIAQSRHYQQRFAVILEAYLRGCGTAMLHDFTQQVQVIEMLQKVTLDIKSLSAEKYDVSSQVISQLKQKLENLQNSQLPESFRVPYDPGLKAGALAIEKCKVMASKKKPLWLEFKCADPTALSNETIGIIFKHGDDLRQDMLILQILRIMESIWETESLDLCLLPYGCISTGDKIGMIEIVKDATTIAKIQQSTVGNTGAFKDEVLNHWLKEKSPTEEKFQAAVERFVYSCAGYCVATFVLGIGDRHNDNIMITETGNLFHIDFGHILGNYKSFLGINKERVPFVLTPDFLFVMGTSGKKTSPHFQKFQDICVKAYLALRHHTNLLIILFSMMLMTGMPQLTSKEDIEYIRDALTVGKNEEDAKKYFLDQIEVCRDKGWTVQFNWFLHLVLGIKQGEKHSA

**Q.** What does the source list for `COc1cc(Nc2nc(C)cc(-c3cnn4nc(OC)ccc34)n2)cc(C(F)(F)F)c1`?
**A.** % of control [1]: 100%; % of control [2]: 93%

**Q.** `CN(C)C/C=C/C(=O)Nc1ccc(C(=O)N2CCCC(Nc3ncc(Cl)c(-c4c[nH]c5ccccc45)n3)C2)cc1` (stereo not drawn) was tested. Which % of control [3] did it give?
**A.** 61%

**Q.** With `CN1Cc2nccc(-c3cn(C)nc3-c3ccc(F)cc3)c2C1=O` as the compound, how does the % of inhibition [4] read?
**A.** -3%

**Q.** For `Nc1cnc(N2CCc3cc(S(=O)(=O)Nc4c(F)cc(Cl)cc4F)cc(N4CCCC4=O)c32)nc1` [TP-020n], which % of control [5] is on record?
**A.** 98%

**Q.** For `CN(C)CCOc1ccc(-c2nc(-c3ccncc3)c(-c3ccc4c(c3)CC/C4=N\O)[nH]2)cc1`, which % of control [6] is on record?
**A.** 52%

**Q.** With `N#Cc1cccc(-c2c[nH]c3ncnc(N4CCOCC4)c23)c1` as the compound, how does the % of control [7] read?
**A.** 89%

**Q.** And the % of inhibition [8]?
**A.** -2%

From ChEMBL document CHEMBL5465560, “Selectivity Literature for EUbOPEN Chemogenomic Library” (2024)
